# Assay results from the supplement of paper PMC10733146.
# What was measured:
# Experiment in all cases: viability relative to DMSO control (fraction); higher = less drug effect (more viable cells)
# Conditions in all cases: 48 h
# [1] = test system: primary DLBCL patient cells (S076)
# In short: (§1)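 Viability was quantified by CellTiter-Glo luminescence and related to the median of 16 inner DMSO wells. Before that, primary mononuclear tumour cells, fresh or cryopreserved and Ficoll-isolated from blood or bone marrow or prepared from processed lymph node, were plated at 4 × 10^4 cells per well in 384-well plates containing pre-plated compounds at five concentrations, one well each. Plates were incubated in RPMI-1640 with penicillin/streptomycin, L-glutamine and human serum at 37 °C and 5% CO2 for 48 h.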
# [2] = test system: primary ALL patient cells (S048)
# In short: as §1
# [3] = test system: primary AML patient cells (S089)
# In short: as §1
# [4] = test system: primary AML patient cells (S021)
# In short: as §1
# [5] = test system: primary AML patient cells (S007)
# In short: as §1
# [6] = test system: primary AML patient cells (S091)
# In short: as §1
# [7] = test system: primary FL patient cells (S022)
# In short: as §1
# [8] = test system: primary AML patient cells (S081)
# In short: as §1
# [9] = test system: primary AML patient cells (S019)
# In short: as §1
# [10] = test system: primary DLBCL patient cells (S049)
# In short: as §1
# [11] = test system: primary AML patient cells (S037)
# In short: as §1
# [12] = test system: primary T-PLL patient cells (S008)
# In short: as §1
# [13] = test system: primary MCL patient cells (S068)
# In short: as §1
# [14] = test system: primary T-NHL patient cells (S058)
# In short: as §1
# [15] = test system: primary AML patient cells (S055)
# In short: as §1
# [16] = test system: primary AML patient cells (S002)
# In short: as §1
# [17] = test system: primary AML patient cells (S011)
# In short: as §1
# [18] = test system: primary AML patient cells (S025)
# In short: as §1
structure (smiles),measurement,setting,value
Nc1cccc2c1CN(C1CCC(=O)NC1=O)C2=O (stereo not given) [Lenalidomide],viability,[1]; 0.008 µM,0.847
same,viability,[1]; 0.04 µM,1.11
same,viability,[1]; 0.2 µM,0.749
same,viability,[1]; 1 µM,0.992
same,viability,[1]; 5 µM,1.06
same,viability,[2]; 0.008 µM,0.895
same,viability,[2]; 0.04 µM,0.751
same,viability,[2]; 0.2 µM,0.609
same,viability,[2]; 1 µM,0.548
same,viability,[2]; 5 µM,0.488
same,viability,[3]; 0.008 µM,0.916
same,viability,[3]; 0.04 µM,0.727
same,viability,[3]; 0.2 µM,0.724
same,viability,[3]; 1 µM,0.559
same,viability,[3]; 5 µM,0.737
same,viability,[4]; 0.008 µM,0.897
same,viability,[4]; 0.04 µM,0.688
same,viability,[4]; 0.2 µM,0.617
same,viability,[4]; 1 µM,0.614
same,viability,[4]; 5 µM,0.556
same,viability,[5]; 0.008 µM,0.801
same,viability,[5]; 0.04 µM,0.386
same,viability,[5]; 0.2 µM,0.204
same,viability,[5]; 1 µM,0.188
same,viability,[5]; 5 µM,0.152
same,viability,[6]; 0.008 µM,1.09
same,viability,[6]; 0.04 µM,1.1
same,viability,[6]; 0.2 µM,1.11
same,viability,[6]; 1 µM,0.943
same,viability,[6]; 5 µM,1.1
same,viability,[7]; 0.008 µM,0.956
same,viability,[7]; 0.04 µM,0.99
same,viability,[7]; 0.2 µM,0.97
same,viability,[7]; 1 µM,1
same,viability,[7]; 5 µM,1.05
same,viability,[8]; 0.008 µM,1.03
same,viability,[8]; 0.04 µM,1.06
same,viability,[8]; 0.2 µM,0.999
same,viability,[8]; 1 µM,1.05
same,viability,[8]; 5 µM,1
same,viability,[9]; 0.008 µM,1.07
same,viability,[9]; 0.04 µM,0.828
same,viability,[9]; 0.2 µM,0.761
same,viability,[9]; 1 µM,0.863
same,viability,[9]; 5 µM,0.71
same,viability,[10]; 0.008 µM,0.962
same,viability,[10]; 0.04 µM,1.09
same,viability,[10]; 0.2 µM,0.905
same,viability,[10]; 1 µM,0.943
same,viability,[10]; 5 µM,0.974
same,viability,[11]; 0.008 µM,1.03
same,viability,[11]; 0.04 µM,1.31
same,viability,[11]; 0.2 µM,0.912
same,viability,[11]; 1 µM,1.03
same,viability,[11]; 5 µM,0.867
same,viability,[12]; 0.008 µM,0.988
same,viability,[12]; 0.04 µM,0.995
same,viability,[12]; 0.2 µM,0.907
same,viability,[12]; 1 µM,0.836
same,viability,[12]; 5 µM,0.798
same,viability,[13]; 0.008 µM,1.02
same,viability,[13]; 0.04 µM,0.803
same,viability,[13]; 0.2 µM,0.832
same,viability,[13]; 1 µM,0.764
same,viability,[13]; 5 µM,0.736
same,viability,[14]; 0.008 µM,0.915
same,viability,[14]; 0.04 µM,1.17
same,viability,[14]; 0.2 µM,0.862
same,viability,[14]; 1 µM,1.14
same,viability,[14]; 5 µM,0.91
same,viability,[15]; 0.008 µM,1.01
same,viability,[15]; 0.04 µM,0.945
same,viability,[15]; 0.2 µM,0.916
same,viability,[15]; 1 µM,0.943
same,viability,[15]; 5 µM,0.928
same,viability,[16]; 0.008 µM,0.904
same,viability,[16]; 0.04 µM,0.949
same,viability,[16]; 0.2 µM,0.757
same,viability,[16]; 1 µM,0.698
same,viability,[16]; 5 µM,0.713
same,viability,[17]; 0.008 µM,0.811
same,viability,[17]; 0.04 µM,0.644
same,viability,[17]; 0.2 µM,0.488
same,viability,[17]; 1 µM,0.496
same,viability,[17]; 5 µM,0.461
Cc1cc(Nc2ncc(Cl)c(Nc3ccccc3S(=O)(=O)C(C)C)n2)c(OC(C)C)cc1C1CCNCC1 [Ceritinib],viability,[1]; 0.024 µM,1.02
same,viability,[1]; 0.12 µM,0.996
same,viability,[1]; 0.6 µM,0.964
same,viability,[1]; 3 µM,0.721
same,viability,[1]; 15 µM,0.0181
same,viability,[2]; 0.024 µM,0.855
same,viability,[2]; 0.12 µM,0.83
same,viability,[2]; 0.6 µM,0.634
same,viability,[2]; 3 µM,0.505
same,viability,[2]; 15 µM,0.0153
same,viability,[3]; 0.024 µM,0.974
same,viability,[3]; 0.12 µM,0.866
same,viability,[3]; 0.6 µM,0.562
same,viability,[3]; 3 µM,0.393
same,viability,[3]; 15 µM,0.0151
same,viability,[4]; 0.024 µM,1
same,viability,[4]; 0.12 µM,0.934
same,viability,[4]; 0.6 µM,0.833
same,viability,[4]; 3 µM,0.572
same,viability,[4]; 15 µM,0.03
same,viability,[5]; 0.024 µM,0.837
same,viability,[5]; 0.12 µM,0.718
same,viability,[5]; 0.6 µM,0.559
same,viability,[5]; 3 µM,0.173
same,viability,[5]; 15 µM,0.0192
same,viability,[6]; 0.024 µM,0.947
same,viability,[6]; 0.12 µM,0.77
same,viability,[6]; 0.6 µM,0.436
same,viability,[6]; 3 µM,0.176
same,viability,[6]; 15 µM,0.0224
same,viability,[7]; 0.024 µM,1.01
same,viability,[7]; 0.12 µM,0.948
same,viability,[7]; 0.6 µM,0.846
same,viability,[7]; 3 µM,0.555
same,viability,[7]; 15 µM,0.0165
same,viability,[8]; 0.024 µM,0.963
same,viability,[8]; 0.12 µM,0.957
same,viability,[8]; 0.6 µM,0.967
same,viability,[8]; 3 µM,0.982
same,viability,[8]; 15 µM,0.0181
same,viability,[9]; 0.024 µM,1.08
same,viability,[9]; 0.12 µM,1
same,viability,[9]; 0.6 µM,1.03
same,viability,[9]; 3 µM,0.773
same,viability,[9]; 15 µM,0.0262
same,viability,[10]; 0.024 µM,0.897
same,viability,[10]; 0.12 µM,0.84
same,viability,[10]; 0.6 µM,0.771
same,viability,[10]; 3 µM,0.4
same,viability,[10]; 15 µM,0.0197
same,viability,[11]; 0.024 µM,1.5
same,viability,[11]; 0.12 µM,0.922
same,viability,[11]; 0.6 µM,1.12
same,viability,[11]; 3 µM,0.742
same,viability,[11]; 15 µM,0.296
same,viability,[12]; 0.024 µM,0.991
same,viability,[12]; 0.12 µM,1.04
same,viability,[12]; 0.6 µM,0.939
same,viability,[12]; 3 µM,0.86
same,viability,[12]; 15 µM,0.0194
same,viability,[13]; 0.024 µM,0.94
same,viability,[13]; 0.12 µM,0.84
same,viability,[13]; 0.6 µM,0.88
same,viability,[13]; 3 µM,1.02
same,viability,[13]; 15 µM,0.0227
same,viability,[14]; 0.024 µM,1.03
same,viability,[14]; 0.12 µM,0.924
same,viability,[14]; 0.6 µM,0.961
same,viability,[14]; 3 µM,0.626
same,viability,[14]; 15 µM,0.023
same,viability,[18]; 0.024 µM,0.985
same,viability,[18]; 0.12 µM,0.874
same,viability,[18]; 0.6 µM,0.838
same,viability,[18]; 3 µM,0.508
same,viability,[18]; 15 µM,0.0191
same,viability,[16]; 0.024 µM,1.12
same,viability,[16]; 0.12 µM,0.926
same,viability,[16]; 0.6 µM,0.861
same,viability,[16]; 3 µM,0.616
same,viability,[16]; 15 µM,0.0299
same,viability,[17]; 0.024 µM,0.846
same,viability,[17]; 0.12 µM,0.942
same,viability,[17]; 0.6 µM,0.631
same,viability,[17]; 3 µM,0.182
same,viability,[17]; 15 µM,0.0175
CC(C)c1cc(C(=O)N2Cc3ccc(CN4CCN(C)CC4)cc3C2)c(O)cc1O [Onalespib],viability,[2]; 0.0032 µM,0.877
same,viability,[2]; 0.016 µM,0.847
same,viability,[2]; 0.08 µM,0.477
same,viability,[2]; 0.4 µM,0.574
same,viability,[2]; 2 µM,0.432
same,viability,[3]; 0.0032 µM,1.17
same,viability,[3]; 0.016 µM,0.872
same,viability,[3]; 0.08 µM,0.234
same,viability,[3]; 0.4 µM,0.235
same,viability,[3]; 2 µM,0.173
same,viability,[4]; 0.0032 µM,0.874
same,viability,[4]; 0.016 µM,0.716
same,viability,[4]; 0.08 µM,0.466
same,viability,[4]; 0.4 µM,0.523
same,viability,[4]; 2 µM,0.58
same,viability,[5]; 0.0032 µM,0.566
same,viability,[5]; 0.016 µM,0.114
same,viability,[5]; 0.08 µM,0.0773
same,viability,[5]; 0.4 µM,0.102
same,viability,[5]; 2 µM,0.111
same,viability,[6]; 0.0032 µM,1.14
same,viability,[6]; 0.016 µM,0.967
same,viability,[6]; 0.08 µM,0.733
same,viability,[6]; 0.4 µM,0.304
same,viability,[6]; 2 µM,0.234
same,viability,[7]; 0.0032 µM,0.868
same,viability,[7]; 0.016 µM,0.943
same,viability,[7]; 0.08 µM,0.705
same,viability,[7]; 0.4 µM,0.781
same,viability,[7]; 2 µM,0.757
same,viability,[8]; 0.0032 µM,1.05
same,viability,[8]; 0.016 µM,1.08
same,viability,[8]; 0.08 µM,0.311
same,viability,[8]; 0.4 µM,0.0842
same,viability,[8]; 2 µM,0.0764
same,viability,[9]; 0.0032 µM,0.594
same,viability,[9]; 0.016 µM,1.1
same,viability,[9]; 0.08 µM,0.265
same,viability,[9]; 0.4 µM,0.57
same,viability,[9]; 2 µM,0.371
same,viability,[11]; 0.0032 µM,0.914
same,viability,[11]; 0.016 µM,0.992
same,viability,[11]; 0.08 µM,0.887
same,viability,[11]; 0.4 µM,0.962
same,viability,[11]; 2 µM,0.916
same,viability,[12]; 0.0032 µM,1.1
same,viability,[12]; 0.016 µM,1.06
same,viability,[12]; 0.08 µM,1.06
same,viability,[12]; 0.4 µM,0.989
same,viability,[12]; 2 µM,0.993
same,viability,[13]; 0.0032 µM,1.04
same,viability,[13]; 0.016 µM,1.44
same,viability,[13]; 0.08 µM,0.814
same,viability,[13]; 0.4 µM,0.497
same,viability,[13]; 2 µM,0.419
same,viability,[15]; 0.0032 µM,0.96
same,viability,[15]; 0.016 µM,1.01
same,viability,[15]; 0.08 µM,0.566
same,viability,[15]; 0.4 µM,0.434
same,viability,[15]; 2 µM,0.389
same,viability,[16]; 0.0032 µM,0.837
same,viability,[16]; 0.016 µM,0.691
same,viability,[16]; 0.08 µM,0.333
same,viability,[16]; 0.4 µM,0.292
same,viability,[16]; 2 µM,0.302
same,viability,[17]; 0.0032 µM,0.712
same,viability,[17]; 0.016 µM,0.916
same,viability,[17]; 0.08 µM,0.399
same,viability,[17]; 0.4 µM,0.684
same,viability,[17]; 2 µM,0.66
